Source: a melting point compilation (Tetko et al.; mined from patent text by program, amines drawn as free bases though some values may be those of a salt)

SMILES	melting point [°C]
c1cc(NCC2CCCO2)c2cc3c(cc2n1)OCO3 (stereo not given)	276 to 278
CC(C)ON=Cc1cc(-n2c(=O)cc(C(F)(F)F)n(C)c2=O)ccc1Cl	105 to 107
COc1cc2ccc(C)cc2c(C)c1OC	68 to 69
COc1cc(C(=O)Nc2cccc3c2CN(C)CC3)cc(OC)c1OC	177 to 178
CC(NC(=NC#N)Nc1cccnc1)c1ccccc1 (stereo not given)	185 to 187
COc1cccc(OCCCNC(=O)OC(C)(C)C)c1-c1cc(Nc2cnc(C#N)cn2)n[nH]1	214 to 216
COc1ccc(NC(=O)CCc2ccc(-c3c(C)sc4nc(=NS(=O)(=O)c5ccc(C)cc5)sn34)cc2)cc1OC	203 to 204
O=C(O)Cc1ccc(CCOc2ccc(CC3SC(=O)NC3=O)cc2)nc1 (stereo not given)	144 to 145
CC(C)(O)c1cc(-c2ccc(Cl)cc2)nc2ccnn12	113 to 115
CC(=O)c1[nH]c2cc(Cl)cc(Cl)c2c1C	178
CCCC(=O)CCCC(=O)CCCSCCCC(C)(C)C(=O)OCC	104 to 105
CCC(Cl)(CC)CC(=O)c1cc(C(C)(C)C)c(O)c(C(C)(C)C)c1	72
CC(C)(C)OC(=O)NCc1cc(N)ccc1Cl	75 to 77
Cc1onc(-c2ccc(C(F)(F)F)cc2)c1CCl	91 to 92
CCNCCCOc1ccc(-c2ccc(C(=O)O)cc2)cc1-c1ccc2c(c1)C(C)(C)CCC2(C)C	233
O=C(O)CCCN1CCN(Cc2ccc3c(c2)-c2[nH]nc(-c4ccsc4)c2C3)CC1	195 to 198
CCOC(=O)c1c(O)c2cc(OCc3ccccc3)ccc2c(=O)n1CC(C)C	92 to 93
Cc1cc(-c2cc(C(F)(F)F)nn2-c2ccc(S(C)(=O)=O)c(F)c2)ccc1-c1ccco1	123 to 125
COc1cc(OC)cc(-c2ncoc2-c2ccc(OC)c(N)c2O)c1	152 to 154
O=C1NC(=C2CCCCC2)Sc2ccccc21	146 to 147
O=C(Oc1ccc(O)c([N+](=O)[O-])c1)c1ccccc1	97
CCOc1cc(OCC(=O)O)cc2c1C(=O)N(COC(=O)c1c(Cl)cccc1Cl)S2(=O)=O	179 to 180
CCCCC(=O)SCC(Cc1ccccc1)C(=O)Nc1cccc(C(=O)O)c1C (stereo not given)	113 to 114
CC(C)c1ccc(C(=O)C2CCN(Cc3ccccc3)CC2)cc1	76 to 77
COC(=O)Cn1nnc(NC(=O)C(c2ccccc2)c2ccccc2)n1	168 to 169

SMILES	melting point [°C]
NC(=O)c1sc(-n2cnc3cnc(Cl)cc32)cc1OCc1ccccc1C(F)(F)F	248 to 249
CCOC(=O)c1cnc2ccc(OC)nc2c1Nc1ccc(OC)cc1	115 to 117
O=C(Nc1nc(-c2ccco2)c(C(=O)C2CCOCC2)s1)c1ccccc1OC(F)(F)F	131 to 134
CN1CCN(Cc2c(CO)c(Cl)nc3cc4c(cc23)OCCO4)CC1	178 to 180
COc1ccc2c(c1)C(c1ccc(Cl)cc1)=NC(CC(=O)NC1CCCCC1)c1nnc(C)n1-2 (stereo not given)	> 260
COCC(=O)c1cccc(S(N)(=O)=O)c1	121 to 122
Cc1[nH]c(=O)sc1C(=O)c1ccc(N(C)C)cc1	224 to 226
NC(=O)CN1C(=O)[C@@H](NC(=O)c2cc3ccccc3[nH]2)[C@H](c2ccccc2)Sc2ccccc21 (relative stereo)	222 to 225
CCCC1=NC(=NOC(=O)NC)SC1(C)CC (stereo not given)	124 to 126
Cc1c(NC(=O)c2ccc(-c3ccc(Cl)cc3)cc2F)ccc2cc(CN3CCCC3)cnc12	181 to 183
Cc1ccc2c(c1)c(Sc1ccc(Cl)cc1)c(C)n2CC(=O)O	219 to 221
COc1ccc(OC)c2c1C[C@](O)(C1(C)OCCO1)CC2=O	183 to 184
COC(=O)C(C#N)c1ccccc1[N+](=O)[O-] (stereo not given)	58 to 60
Cc1csc(NC(=O)N(C)C)n1	97 to 98
Cc1ccc(OC2=C(Oc3ccc(C)c(C)c3)C(F)(F)C(F)(F)C2(F)F)cc1C	65 to 67
COC(=O)CCCC(C)(C)c1cc(Cl)c(O)c(Cl)c1	101 to 103
CC(=O)N[C@@H](Cc1cscn1)C(=O)O	186
CCN(CC)C(=O)c1cccc(F)c1[Si](C)(C)C(C)(C)C	50 to 51
O=c1[nH]c2ccc(S(=O)CCN3CCC(Cc4ccc(F)cc4F)CC3)cc2o1 (stereo not given)	166 to 168
OC1N=C(c2ccccc2Cl)c2cc(Cl)ccc2-c2ncncc21 (stereo not given)	105 to 117
CCN(C)C(=O)/C=C/CSc1nc(N)cc(Cl)n1	170 to 172
Cc1nn(C)c(F)c1C(=O)Nc1ccccc1C(C)C(O)C(C)C (stereo not given)	118
O=c1c(Br)c(OCc2ccccc2)ccn1Cc1cccc(C(F)(F)F)c1	182
CC(=O)N1CCc2c(Br)ccc([N+](=O)[O-])c2C1	159 to 161
N#Cc1c(C#N)n(-c2ccc(Cl)cc2)c(=O)n1Cc1ccccc1	192 to 194

SMILES	melting point [°C]
CC1(C)CC(=O)C2=C(C1)NC1=C(C(=O)CC(C)(C)C1)C2c1cc(Cl)cc(Cl)c1	288 to 290
Cc1ccc(S(=O)(=O)N2Cc3csc(C)c3C2)cc1	158 to 160
CC1C(=O)N(c2cccc(Cl)c2)N=C1N (stereo not given)	138
CS(=O)(=O)Nc1ccc2c(c1)CC(=O)N2CCN1CCN(Cc2ccccc2)CC1	196 to 198
O=c1ccc2ccc(OCCCCN3CCN(c4cccc5cc(Cl)ccc45)CC3)nc2[nH]1	208 to 209
CCCCOC(=O)N[C@@H](CC(N)=O)C(=O)N[C@@H](Cc1ccccc1)[C@H](O)C(=O)N1CCC[C@H]1C(=O)NC(C)(C)C	61 to 65
CC1CCC(C(C)C)C(OC(=O)N[C@@]2(C)CCC(=O)NC2=O)C1 (stereo not given in full)	170 to 172
CN1C(=O)C(C)(C)N=C(c2ccccc2F)c2c1cc(Br)c(N)c2Br	202
CCN1CNS(=O)(=O)c2cc(Br)ccc21	122 to 124
COc1cccc(-c2nc3n(n2)Cc2ccc(OC)cc2-3)c1	136 to 138
CC(C)(C)OC(=O)NCCNC(=O)c1ncccc1Oc1ccc(Cl)cc1	120 to 122
COc1cc(NC(=O)/C=C/c2ccc(C(C)(C)C)cc2)ccc1O	203 to 204
Brc1nc2cncnc2n1Cc1ccccc1	119 to 121
COc1cc(C(=O)N2CCC(CCOS(C)(=O)=O)(c3ccc(Cl)c(Cl)c3)C2)cc(OC)c1OC (stereo not given)	64 to 66
CC(C)=NOCc1nc2c(N)nc3cc(-c4ccccc4)cnc3c2n1CC(C)C	196 to 197
CCC1Oc2ccc(Br)cc2N(CC(O)CO)C1=O (stereo not given)	91
Brc1ccc2cc(OCc3ccc4ccccc4n3)ccc2c1	135 to 137
CC(C)=CCCN1c2ccccc2CN1[N+](=O)[O-]	51 to 52
CC(C)c1ccc(C(=O)CCCCl)cc1	35 to 37
O=[N+]([O-])C1COc2cc3c(cc2C1c1ccccc1C1OCCCO1)OCO3 (stereo not given)	207
COC1(OC)CCN(Cc2ccccc2)CC1O (stereo not given)	90.1
CC1CC(=O)NN=C1c1ccc(N2CCN(c3ncccn3)CC2)c([N+](=O)[O-])c1 (stereo not given)	232 to 233
O=C(c1ccc([N+](=O)[O-])cc1)N1CCN(CCc2ccc(Cl)cc2)CC1	109 to 110
CCc1cn(C(C)(C)C(=O)N(C)C)nc1-c1ccccc1Cl	102 to 104
CN(c1cccc2cc(C(=O)NCC(C)(CCO)SCc3ccccc3)[nH]c12)S(=O)(=O)c1cccs1 (stereo not given)	132 to 133

SMILES	melting point [°C]
CC(C)CNc1c([N+](=O)[O-])c2nnnn2c2cnccc12	173 to 174
COC(=O)c1ccccc1S(=O)(=O)NC(=O)Nc1nc(N(C)C)c2nc(C)c(C)nc2n1	196
O=C(C(Cl)Cl)N1CCSC12CCCCC2	149 to 151
O=C(O)c1ccc2c(c1F)OC(c1ccccc1)(c1ccccc1)O2	189 to 191
COC(=O)c1cccc(NC(=O)CC(=O)c2ccccc2)c1C(=O)OC	100 to 103
N#Cc1cccc(C2=NOC3(C2)OC(=O)c2ccccc23)c1 (stereo not given)	134 to 137
CC1(C)C(c2ccccc2)=Nc2ccc(C3=NNC(=O)CC3)cc21	200 to 201
CCC(C)COc1ccc(-c2ccc(O)cc2)cc1Br (stereo not given)	75 to 76.5
CCC1Cn2c(ncc(C(N)=O)c2=O)-c2ccccc21 (stereo not given)	197 to 202
O=C(Nc1ccc(SC(F)(F)F)c(Cl)c1)c1cc(Cl)c2ccccc2c1O	148 to 149
O=c1c2c(Cl)cc(Cl)cc2n(Cc2ccccc2)c(=O)n1Cc1cccc(I)c1	155 to 157
CN(C)c1cncc(C(=NCCc2ccccc2Cl)NC#N)c1	158
CC[C@@H](C(=O)O)n1ccc2ccc(Cl)cc2c1=O	160
Clc1ccc2[nH]cc(C3=CCN(CCOc4ccccc4)CC3)c2c1	172
Cc1cccc(C)c1-n1cc(C#N)c(=O)n(SC(Cl)(Cl)Cl)c1=O	223 to 225
COCCNc1c([N+](=O)[O-])cc(C(F)(F)F)c(Cl)c1[N+](=O)[O-]	106 to 108
COc1cc(OC)nc(Oc2cccc(O)c2C(=O)OCc2ccccc2)n1	63 to 65
Cc1cccc(C2=C(c3ccc(S(C)(=O)=O)cc3)CN(C)C2=O)c1	163 to 165
CC#CCC(CC#CC)(C(=O)O)S(=O)(=O)c1ccc(OC)cc1	141 to 143
CCCCCCCc1cnc(-c2ccc(OC(=O)c3cc(N)c(O[C@H](C)CCCCCC)cc3[N+](=O)[O-])cc2)nc1	105
CCOc1ccc2c(c1)n(C13CC4CC(CC(C4)C1)C3)c(=O)n2S(=O)(=O)c1ccc(N)cc1OC	248
COc1ccc2ncc(NC(=O)C=Cc3cc(OC)c(OC(C)=O)c(OC)c3)c(-c3ccccc3)c2c1	273 to 275
Cn1cc(-c2cc3cccnc3[nH]2)c2cc(C(=O)NC(C)(CO)CO)ccc21	180 to 182
Cc1ccc(-c2cccnc2C#N)cc1	136 to 138
Cc1c(N)cccc1C(=O)c1ccc(Cl)cc1	65
